Where two headings read alike, the source gives them in different places.
Assays:
[1] = tested on: Phospho-KIT (Y703) in M07e cells; test: Phospho-KIT (Y703) cellular assay in M07e cells; assay type: cell-based; settings: M-07e
How it was run: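 Serum-starved M07e cells preincubated 50 min at 37° C with 11-point half-log compound titration, then stimulated 10 min with SCF at 90.9 ng/mL final. Fixed, permeabilized cells stained for phospho-KIT Y703 and read by flow cytometry (live-gated geometric mean); IC50 by 4-parameter fit normalized to DMSO and positive control.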

CSF1R = CSF1R (Homo sapiens (Human), UniProt P07333); test: Inhibition of CSF1R kinase activity (HTRF KinEASE-TK); settings: biochemical, HTRF KinEASE-TK
How it was run: (§1)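 Phosphorylation of biotinylated TK peptide read by HTRF (665/620 nm ratio) after 120 min at rt, following 1 h enzyme–compound preincubation. ATP (2× mix): 20 μM CSF1R, 16 μM c-Kit, 40 μM PDGFRβ, 1 μM PDGFRα; MgCl2 10 mM except c-Kit 5 mM. 22-point 1:2 titration; four-parameter IC50.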

PDGFRα = PDGFRα (Homo sapiens (Human), UniProt P16234); test: Inhibition of PDGFRα kinase activity (HTRF KinEASE-TK); settings: biochemical, HTRF KinEASE-TK
How it was run: as §1

FLT3 = FLT3 (Homo sapiens (Human), UniProt P36888); test: Inhibition of FLT3 kinase activity (HTRF KinEASE-TK); assay type: biochemical; settings: biochemical, HTRF KinEASE-TK
How it was run: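 FLT3 tyrosine kinase activity was measured with the HTRF KinEASE-TK kit by following phosphorylation of a biotinylated TK peptide. After the 45 min reaction, 10 μL of detection mix was added: 0.2 μM (2×) Streptavidin-XL665 and 2 μM (2×) TK-Antibody-Cryptate in detection buffer. After 60 min, TR-FRET was read on an Envision as the 665 nm/620 nm emission ratio with 320 nm excitation.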

c-Kit = c-Kit (Homo sapiens (Human), UniProt P10721); test: Inhibition of c-Kit kinase activity (HTRF KinEASE-TK); assay type: biochemical; settings: biochemical, HTRF KinEASE-TK
How it was run: as §1

PDGFRβ = PDGFRβ (Homo sapiens (Human), UniProt P09619); test: Inhibition of PDGFRβ kinase activity (HTRF KinEASE-TK); settings: biochemical, HTRF KinEASE-TK
How it was run: as §1

[2] = Phospho-KIT (Y703), M07e cells, read-out: M07e Cell IC50

Chain of c-Kit (P10721 26-976): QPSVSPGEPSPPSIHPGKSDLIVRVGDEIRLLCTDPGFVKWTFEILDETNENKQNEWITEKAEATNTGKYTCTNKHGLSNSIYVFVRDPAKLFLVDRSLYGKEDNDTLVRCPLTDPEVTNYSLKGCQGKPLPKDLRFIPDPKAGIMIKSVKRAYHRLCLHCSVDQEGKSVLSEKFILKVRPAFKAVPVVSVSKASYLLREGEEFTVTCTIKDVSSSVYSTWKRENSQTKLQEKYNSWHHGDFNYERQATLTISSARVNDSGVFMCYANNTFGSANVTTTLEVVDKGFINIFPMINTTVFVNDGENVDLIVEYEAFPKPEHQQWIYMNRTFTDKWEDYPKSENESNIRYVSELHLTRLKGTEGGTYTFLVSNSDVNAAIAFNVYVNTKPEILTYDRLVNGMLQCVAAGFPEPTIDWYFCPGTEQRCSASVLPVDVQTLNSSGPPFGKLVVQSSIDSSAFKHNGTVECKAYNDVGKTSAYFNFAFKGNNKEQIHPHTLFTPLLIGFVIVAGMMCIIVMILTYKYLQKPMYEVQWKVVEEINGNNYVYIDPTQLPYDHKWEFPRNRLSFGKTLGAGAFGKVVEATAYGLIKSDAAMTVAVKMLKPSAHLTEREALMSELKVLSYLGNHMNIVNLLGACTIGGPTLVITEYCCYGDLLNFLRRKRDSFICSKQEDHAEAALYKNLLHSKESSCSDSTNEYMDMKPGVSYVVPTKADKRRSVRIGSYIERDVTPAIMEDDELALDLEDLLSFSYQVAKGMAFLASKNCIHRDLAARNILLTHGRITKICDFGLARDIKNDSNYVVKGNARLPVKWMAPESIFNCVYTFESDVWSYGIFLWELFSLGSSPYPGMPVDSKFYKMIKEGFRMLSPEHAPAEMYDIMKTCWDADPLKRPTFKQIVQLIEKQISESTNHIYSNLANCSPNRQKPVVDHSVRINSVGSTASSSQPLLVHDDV
Chain of PDGFRβ (P09619 33-1106): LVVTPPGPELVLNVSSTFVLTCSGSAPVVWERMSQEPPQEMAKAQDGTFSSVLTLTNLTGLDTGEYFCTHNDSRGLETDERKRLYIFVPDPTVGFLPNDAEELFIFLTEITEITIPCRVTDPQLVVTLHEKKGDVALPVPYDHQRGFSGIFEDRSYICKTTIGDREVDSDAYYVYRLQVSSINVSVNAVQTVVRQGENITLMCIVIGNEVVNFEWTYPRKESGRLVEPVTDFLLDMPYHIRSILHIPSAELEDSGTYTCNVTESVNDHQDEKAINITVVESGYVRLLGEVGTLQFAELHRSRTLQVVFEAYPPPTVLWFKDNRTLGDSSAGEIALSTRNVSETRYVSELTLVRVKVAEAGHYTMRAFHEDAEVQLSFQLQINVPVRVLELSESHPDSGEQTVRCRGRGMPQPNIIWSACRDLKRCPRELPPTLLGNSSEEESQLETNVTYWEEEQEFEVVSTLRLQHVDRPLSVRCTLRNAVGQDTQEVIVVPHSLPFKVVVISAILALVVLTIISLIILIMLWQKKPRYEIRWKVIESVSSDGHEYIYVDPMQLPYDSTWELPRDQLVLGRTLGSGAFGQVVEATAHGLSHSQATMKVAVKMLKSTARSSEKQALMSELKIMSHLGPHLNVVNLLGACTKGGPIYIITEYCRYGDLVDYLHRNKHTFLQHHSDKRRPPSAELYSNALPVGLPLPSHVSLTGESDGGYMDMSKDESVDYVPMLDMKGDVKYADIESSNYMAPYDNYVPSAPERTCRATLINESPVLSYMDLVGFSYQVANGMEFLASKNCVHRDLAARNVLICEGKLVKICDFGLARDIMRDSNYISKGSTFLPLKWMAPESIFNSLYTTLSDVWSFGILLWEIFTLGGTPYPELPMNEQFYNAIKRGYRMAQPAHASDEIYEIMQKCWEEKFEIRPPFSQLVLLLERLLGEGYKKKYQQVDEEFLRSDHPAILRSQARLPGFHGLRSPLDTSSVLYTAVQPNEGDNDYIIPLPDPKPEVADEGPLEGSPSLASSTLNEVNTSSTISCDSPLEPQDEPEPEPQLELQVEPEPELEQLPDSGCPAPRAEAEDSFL
Chain of PDGFRα (P16234 24-1089): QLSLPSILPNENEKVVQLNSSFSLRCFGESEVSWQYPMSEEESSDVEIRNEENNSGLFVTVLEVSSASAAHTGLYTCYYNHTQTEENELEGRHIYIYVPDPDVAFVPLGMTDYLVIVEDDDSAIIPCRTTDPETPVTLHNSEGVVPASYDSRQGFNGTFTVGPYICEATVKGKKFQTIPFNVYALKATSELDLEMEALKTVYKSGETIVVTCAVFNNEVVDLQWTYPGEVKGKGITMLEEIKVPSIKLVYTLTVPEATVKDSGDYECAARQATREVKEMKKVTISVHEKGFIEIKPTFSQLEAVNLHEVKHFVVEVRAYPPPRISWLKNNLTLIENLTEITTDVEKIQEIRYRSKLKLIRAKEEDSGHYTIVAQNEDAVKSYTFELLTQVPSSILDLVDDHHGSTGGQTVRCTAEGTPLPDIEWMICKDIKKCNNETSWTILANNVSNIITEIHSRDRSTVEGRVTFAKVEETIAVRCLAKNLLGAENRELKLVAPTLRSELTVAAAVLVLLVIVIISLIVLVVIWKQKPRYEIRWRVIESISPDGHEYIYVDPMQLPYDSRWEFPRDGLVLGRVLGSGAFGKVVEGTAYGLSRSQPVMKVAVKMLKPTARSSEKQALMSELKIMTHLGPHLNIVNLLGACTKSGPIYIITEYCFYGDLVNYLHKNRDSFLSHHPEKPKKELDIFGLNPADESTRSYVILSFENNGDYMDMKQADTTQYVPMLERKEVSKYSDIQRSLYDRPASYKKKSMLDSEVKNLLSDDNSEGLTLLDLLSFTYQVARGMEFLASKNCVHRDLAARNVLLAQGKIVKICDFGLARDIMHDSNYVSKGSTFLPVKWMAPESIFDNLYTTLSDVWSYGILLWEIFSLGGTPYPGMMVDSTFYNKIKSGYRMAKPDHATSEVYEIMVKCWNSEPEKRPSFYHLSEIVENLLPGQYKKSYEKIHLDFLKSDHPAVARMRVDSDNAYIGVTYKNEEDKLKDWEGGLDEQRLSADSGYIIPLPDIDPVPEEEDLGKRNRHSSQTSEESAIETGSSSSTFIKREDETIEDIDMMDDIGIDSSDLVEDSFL
Chain of FLT3 (P36888 27-993): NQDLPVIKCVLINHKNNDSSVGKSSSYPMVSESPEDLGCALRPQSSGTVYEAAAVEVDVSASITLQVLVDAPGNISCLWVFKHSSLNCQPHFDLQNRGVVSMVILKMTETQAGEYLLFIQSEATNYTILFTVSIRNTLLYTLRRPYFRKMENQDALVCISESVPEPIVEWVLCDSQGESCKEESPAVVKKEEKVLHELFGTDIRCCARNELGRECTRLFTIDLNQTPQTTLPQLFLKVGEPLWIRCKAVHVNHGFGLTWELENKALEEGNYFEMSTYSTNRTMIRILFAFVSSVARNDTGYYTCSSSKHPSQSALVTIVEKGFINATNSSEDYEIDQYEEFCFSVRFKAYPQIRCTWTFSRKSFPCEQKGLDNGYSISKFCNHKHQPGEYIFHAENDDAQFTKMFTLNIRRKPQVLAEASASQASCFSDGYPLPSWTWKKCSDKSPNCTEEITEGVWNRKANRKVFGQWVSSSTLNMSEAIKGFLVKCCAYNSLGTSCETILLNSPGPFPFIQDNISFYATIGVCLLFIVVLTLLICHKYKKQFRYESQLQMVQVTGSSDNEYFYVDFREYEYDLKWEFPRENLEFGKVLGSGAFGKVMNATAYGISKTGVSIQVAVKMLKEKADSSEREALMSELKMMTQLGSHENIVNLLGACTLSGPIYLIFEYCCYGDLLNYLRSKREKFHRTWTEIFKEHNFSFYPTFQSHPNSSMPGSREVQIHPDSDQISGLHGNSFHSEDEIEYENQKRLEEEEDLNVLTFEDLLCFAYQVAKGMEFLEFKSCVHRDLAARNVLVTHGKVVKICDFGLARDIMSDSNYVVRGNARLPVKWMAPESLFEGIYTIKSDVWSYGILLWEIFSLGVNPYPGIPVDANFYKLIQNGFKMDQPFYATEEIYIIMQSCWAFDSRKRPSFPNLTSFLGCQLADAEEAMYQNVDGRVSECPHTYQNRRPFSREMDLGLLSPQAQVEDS
Chain of CSF1R (P07333 20-972): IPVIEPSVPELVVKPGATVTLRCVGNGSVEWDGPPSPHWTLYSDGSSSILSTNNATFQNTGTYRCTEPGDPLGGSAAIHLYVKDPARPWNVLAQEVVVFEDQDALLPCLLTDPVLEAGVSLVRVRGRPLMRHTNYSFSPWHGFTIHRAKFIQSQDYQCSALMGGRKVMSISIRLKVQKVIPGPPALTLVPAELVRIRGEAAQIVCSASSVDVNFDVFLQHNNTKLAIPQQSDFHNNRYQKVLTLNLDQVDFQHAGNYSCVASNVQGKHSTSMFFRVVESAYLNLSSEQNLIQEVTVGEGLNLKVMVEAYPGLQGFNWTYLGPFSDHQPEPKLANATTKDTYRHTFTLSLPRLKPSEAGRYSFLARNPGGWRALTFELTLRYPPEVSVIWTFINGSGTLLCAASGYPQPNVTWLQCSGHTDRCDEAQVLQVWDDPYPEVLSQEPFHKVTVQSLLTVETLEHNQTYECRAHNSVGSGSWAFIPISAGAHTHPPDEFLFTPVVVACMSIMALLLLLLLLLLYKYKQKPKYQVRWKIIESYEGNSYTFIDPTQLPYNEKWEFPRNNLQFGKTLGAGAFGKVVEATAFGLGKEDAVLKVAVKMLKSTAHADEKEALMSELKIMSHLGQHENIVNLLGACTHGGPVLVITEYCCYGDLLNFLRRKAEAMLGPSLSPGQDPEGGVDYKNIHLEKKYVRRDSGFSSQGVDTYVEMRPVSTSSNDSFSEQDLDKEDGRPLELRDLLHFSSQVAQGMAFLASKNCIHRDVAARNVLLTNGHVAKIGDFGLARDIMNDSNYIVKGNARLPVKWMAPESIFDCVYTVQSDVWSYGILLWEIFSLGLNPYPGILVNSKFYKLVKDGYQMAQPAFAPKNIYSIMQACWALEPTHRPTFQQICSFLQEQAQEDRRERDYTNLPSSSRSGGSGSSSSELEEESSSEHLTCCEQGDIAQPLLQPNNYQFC

Structure (SMILES)	IC50 [1, 2] [µM]	IC50 (CSF1R) [µM]	IC50 (PDGFRα) [µM]	IC50 (FLT3) [µM]	IC50 (c-Kit) [µM]	IC50 (PDGFRβ) [µM]	IC50 ([1]; M07e cells, read-out: Phospho-KIT (Y703) cellular IC50) [µM]	IC50 ([1]; read-out: M07e Cell IC50) [µM]
Cc1cc(F)c(C(=O)Nc2ccn(C3CC(F)(F)C3)n2)cc1NC(=O)c1cnc(N)s1 [Example 139, 2-Amino-N-[5-[[1-(3,3-difluorocyclobutyl)pyrazol-3-yl]carbamoyl]-4-fluoro-2-methylphenyl]-1,3-thiazole-5-carboxamide]	< 0.1	> 1	0.1 to 1	> 1	< 0.1	0.1 to 1		
Cc1cc(F)c(C(=O)Nc2ccn([C@H]3CCOC3)n2)cc1NC(=O)c1cnc(N)s1 [Example 191, 2-Amino-N-[4-fluoro-2-methyl-5-[[1-[(3S)-oxolan-3-yl]pyrazol-3-yl]carbamoyl]phenyl]-1,3-thiazole-5-carboxamide]	< 0.1	> 1	> 1	> 1	< 0.1	> 1		
Cc1ncc(C(=O)Nc2cc(C(=O)Nc3cncc(COC(F)F)c3)c(F)cc2C)s1 [Example 80, N-[5-[[5-(difluoromethoxymethyl)pyridin-3-yl]carbamoyl]-4-fluoro-2-methylphenyl]-2-methyl-1,3-thiazole-5-carboxamide]		> 1	> 1	> 1	< 0.1	> 1		< 0.1
Cc1ncc(C(=O)Nc2cc(C(=O)N[C@@H]3C[C@H]3c3ccccc3)c(F)cc2C)s1 [Example 31, N-[4-Fluoro-2-methyl-5-[[(1R,2S)-2-phenylcyclopropyl]carbamoyl]phenyl]-2-methyl-1,3-thiazole-5-carboxamide]	< 0.1	> 1	> 1	> 1	< 0.1	> 1		
Cc1cc(F)c(C(=O)Nc2ccn(-c3ccccc3)n2)cc1NC(=O)c1cnc(N)s1 [Example 172, 2-Amino-N-[4-fluoro-2-methyl-5-[(1-phenylpyrazol-3-yl)carbamoyl]phenyl]-1,3-thiazole-5-carboxamide]	< 0.1	> 1	> 1	> 1	< 0.1	> 1		
Cc1ncc(C(=O)Nc2cc(C(=O)Nc3ccc(COC(F)F)cn3)c(F)cc2C)s1 [Example 78, N-[5-[[5-(difluoromethoxymethyl)pyridin-2-yl]carbamoyl]-4-fluoro-2-methylphenyl]-2-methyl-1,3-thiazole-5-carboxamide]		> 1	> 1	> 1	< 0.1	> 1		< 0.1
Cc1ncc(C(=O)Nc2cc(C(=O)Nc3ccn(CC(C)C)n3)c(F)cc2C)s1 [Example 64, N-[4-fluoro-2-methyl-5-[[1-(2-methylpropyl)pyrazol-3-yl]carbamoyl]phenyl]-2-methyl-1,3-thiazole-5-carboxamide]	< 0.1	> 1	> 1	> 1	< 0.1	> 1		
Cc1cc(F)c(C(=O)Nc2cc3n(n2)CCC3)cc1NC(=O)c1cnc(N)s1 [Example 156, 2-Amino-N-[5-(5,6-dihydro-4H-pyrrolo[1,2-b]pyrazol-2-ylcarbamoyl)-4-fluoro-2-methylphenyl]-1,3-thiazole-5-carboxamide]	< 0.1	> 1	> 1	> 1	< 0.1	0.1 to 1		

Second part, led by results:

IC50 [1, 2] [µM]	IC50 (CSF1R) [µM]	IC50 (PDGFRα) [µM]	IC50 (FLT3) [µM]	IC50 (c-Kit) [µM]	IC50 (PDGFRβ) [µM]	IC50 ([1]; M07e cells, read-out: Phospho-KIT (Y703) cellular IC50) [µM]	Structure (SMILES)	IC50 ([1]; read-out: M07e Cell IC50) [µM]
< 0.1	> 1	> 1	> 1	< 0.1	> 1		Cc1cc(F)c(C(=O)Nc2ccc(COCC3CC3)cn2)cc1NC(=O)c1cnc(N)s1 [Example 251, 2-Amino-N-[5-[[5-(cyclopropylmethoxymethyl)pyridin-2-yl]carbamoyl]-4-fluoro-2-methylphenyl]-1,3-thiazole-5-carboxamide]	
	0.1 to 1	0.1 to 1	> 1	< 0.1	< 0.1	< 0.1	Cc1cc(F)c(C(=O)Nc2ccc(OC(C)C)nn2)cc1NC(=O)c1cnc(N)s1 [Example 259, 2-Amino-N-[4-fluoro-2-methyl-5-[(6-propan-2-yloxypyridazin-3-yl)carbamoyl]phenyl]-1,3-thiazole-5-carboxamide]	
< 0.1	0.1 to 1	> 1	> 1	< 0.1	0.1 to 1		COc1ccnc(NC(=O)c2cc(NC(=O)c3cnc(N)s3)c(C)cc2F)c1 [Example 189, 2-Amino-N-[4-fluoro-5-[(4-methoxypyridin-2-yl)carbamoyl]-2-methylphenyl]-1,3-thiazole-5-carboxamide]	
< 0.1	0.1 to 1	< 0.1	> 1	< 0.1	< 0.1		Cc1cc(F)c(C(=O)Nc2ccc(OC3CC3)cc2)cc1NC(=O)c1cnc(N)s1 [Example 229, 2-Amino-N-[5-[(4-cyclopropyloxyphenyl)carbamoyl]-4-fluoro-2-methylphenyl]-1,3-thiazole-5-carboxamide]	
< 0.1	> 1	> 1	> 1	< 0.1	> 1		CC(C)Oc1ccc(NC(=O)c2cc(NC(=O)c3cnc(N)s3)c(F)cc2F)nc1 [Example 218, 2-Amino-N-[2,4-difluoro-5-[(5-propan-2-yloxypyridin-2-yl)carbamoyl]phenyl]-1,3-thiazole-5-carboxamide]	
< 0.1	0.1 to 1	0.1 to 1	> 1	< 0.1	0.1 to 1		Cc1cc(F)c(C(=O)Nc2ccc(Cl)cc2)cc1NC(=O)c1cnc(N)s1 [Example 231, 2-Amino-N-[5-[(4-chlorophenyl)carbamoyl]-4-fluoro-2-methylphenyl]-1,3-thiazole-5-carboxamide]	
< 0.1	> 1	> 1	> 1	< 0.1	> 1		Cc1cc(F)c(C(=O)Nc2ccc(O[C@H]3CCOC3)cn2)cc1NC(=O)c1cnc(N)s1 [Example 117, 2-Amino-N-[4-fluoro-2-methyl-5-[[5-[(3S)-oxolan-3-yl]oxypyridin-2-yl]carbamoyl]phenyl]-1,3-thiazole-5-carboxamide]	
< 0.1	0.1 to 1	0.1 to 1	> 1	< 0.1	< 0.1		Cc1cc(F)c(C(=O)Nc2ccc(OC3(C)CC3)cn2)cc1NC(=O)c1cnc(N)s1 [Example 147, 2-Amino-N-[4-fluoro-2-methyl-5-[[5-(1-methylcyclopropyl)oxypyridin-2-yl]carbamoyl]phenyl]-1,3-thiazole-5-carboxamide]	
< 0.1	0.1 to 1	> 1	> 1	< 0.1	0.1 to 1		Nc1ncc(C(=O)Nc2cc(C(=O)Nc3ccc(OC(F)(F)F)cn3)c(F)cc2F)s1 [Example 210, 2-Amino-N-[2,4-difluoro-5-[[5-(trifluoromethoxy)pyridin-2-yl]carbamoyl]phenyl]-1,3-thiazole-5-carboxamide]	
< 0.1	> 1	> 1	> 1	< 0.1	> 1		CCOc1ccc(NC(=O)c2cc(NC(=O)c3cnc(N)s3)c(F)cc2F)nc1 [Example 212, 2-Amino-N-[5-[(5-ethoxypyridin-2-yl)carbamoyl]-2,4-difluorophenyl]-1,3-thiazole-5-carboxamide]	
< 0.1	> 1	> 1	> 1	< 0.1	> 1		Nc1ncc(C(=O)Nc2cc(C(=O)Nc3ccc(OCC(F)F)cn3)c(F)cc2F)s1 [Example 213, 2-Amino-N-[5-[[5-(2,2-difluoroethoxy)pyridin-2-yl]carbamoyl]-2,4-difluorophenyl]-1,3-thiazole-5-carboxamide]	
< 0.1	0.1 to 1	> 1	> 1	< 0.1	0.1 to 1		Nc1ncc(C(=O)Nc2cc(C(=O)Nc3ccc(OC(F)F)cn3)c(F)cc2Cl)s1 [Example 208, 2-Amino-N-[2-chloro-5-[[5-(difluoromethoxy)pyridin-2-yl]carbamoyl]-4-fluorophenyl]-1,3-thiazole-5-carboxamide]	

From patent publication US20250145606A1 (Arcus Biosciences, Inc., priority 2023, published 2025)
